The text below walks through data of publication PMC8061427 (Science translational medicine, 2020).

Data set [1] has as its system mice. Put plainly: Mouse tail bleeding time test. The note with it: cangrelor 30 μg/kg; for effect on mouse tail bleeding time: Fig. 5, M3mP6 HLPN 5 or 10 μmol/kg, high dose aspirin 36 mg/kg i.p., clopidogrel 4 mg/kg, ticagrelor 3 mg/kg.
The subject of the next data set is C57BL/6 mice. Nature of the data set: FeCl3-induced mouse carotid artery thrombosis model. Particulars: for effect on occlusive thrombus formation: 7.5% FeCl3. The format is in vivo.
In data set [2] the test system is mice. Nature of the data set: Laser-induced cremaster arteriolar thrombosis model in mice. The format is in vivo, mouse. Particulars: pre-injected intravenously; M3mP6 HLPN 10 μmol/kg, cangrelor 30 μg/kg; 27 injury sites each.
For data set [3] the following is noted: no reference given; cited from earlier work.
The conditions of data set [4]: lipid micellar formulation; cited from earlier work.

“And” between values parts separate entries of the source, which are not always exact repeats. Equal entries are not always repeated. Where no end group is shown, it is not given here. The star is where a group is joined. Myristoyl = CCCCCCCCCCCCCC(=O)*

Turning to `CC(=O)Oc1ccccc1C(=O)O` [aspirin], the “effect on mouse tail bleeding time” value in the data set on mice [1] is given as “increased tail bleeding time”. For the same compound, in the data set on C57BL/6 mice (Fig. 4B, M3mP6 HLPN 5 μmol/kg, aspirin 36 mg/kg i.p. 1 hour before), the “effect on occlusive thrombus formation” value was “no obvious effect”.

`CSCCNc1nc(SCCC(F)(F)F)nc2c1ncn2[C@@H]1O[C@H](COP(=O)(O)OP(=O)(O)C(Cl)(Cl)P(=O)(O)O)[C@@H](O)[C@H]1O` [cangrelor]: the “effect on platelet thrombus formation” value in the data set on mice [2] is “potently inhibiting platelet thrombus formation”. The plasma half-life in data set [3] was 3 to 6 min. For the same compound, in the data set on mice [1], the “effect on mouse tail bleeding time” value is reported as “increased tail bleeding time”. Further, the tail bleeding time result with mice [1] (post-injury injection, M3mP6 HLPN 10 μmol/kg) is “prolonged tail bleeding time”. Besides, the “overall effect on occlusive thrombosis” value with C57BL/6 mice (Fig. 4E, cangrelor 30 μg/kg retro-orbital, M3mP6 HLPN 10 μmol/kg) is on record as “moderately better than M3mP6 HLPN”.

For `COC(=O)[C@H](c1ccccc1Cl)N1CCc2sccc2C1` [clopidogrel], the “effect on occlusive thrombus formation” value in the data set on C57BL/6 mice (Fig. 4C, M3mP6 HLPN 10 μmol/kg, clopidogrel 4 mg/kg oral 2 hours before, ticagrelor 3 mg/kg oral 2 hours before) is “delayed occlusive thrombus formation following FeCl3-induced injury but was less effective than M3mP6 HLPN”.

For the compound `CCCSc1nc(N[C@@H]2C[C@H]2c2ccc(F)c(F)c2)c2nnn([C@@H]3C[C@H](OCCO)[C@@H](O)[C@H]3O)c2n1` [ticagrelor], the “effect on mouse tail bleeding time” value in the data set on mice [1] was “increased tail bleeding time”.

Consider Myristoyl-FEEERA [mP6], for which, in data set [4], the “peptide concentration achieved in lipid micellar suspension” value is 1 mM and < 1 mM.
